Data taken from patent publication US6699857B1, “Tetrahydroquinolinyl 6-methyldihydrothiadiazinone derivatives and use thereof” (Bayer Aktiengesellschaft, priority 1999, dated 2004).

| melting point | Compound |
| --- | --- |
| 148 to 150 °C (dec.) | CC1SC(=O)NN=C1c1ccc2c(c1)CCCN2C(=O)C1CCCCC1 (stereo not drawn) [Example 16] |
| 213 to 214 °C (dec.) | CC1SC(=O)NN=C1c1ccc2c(c1)CCCN2C(=O)Nc1ccccc1 (stereo not drawn) [Example 6] |
| 151 to 153 °C | CCCNC(=O)N1CCCc2cc(C3=NNC(=O)SC3C)ccc21 (stereo not drawn) [Example 4] |
| 159 to 161 °C | CC1SC(=O)NN=C1c1ccc2c(c1)CCCN2C(=O)c1ccco1 (stereo not drawn) [Example 11] |
| 188 to 189 °C | CC1SC(=O)NN=C1c1ccc2c(c1)CCCN2C(=O)Cc1c(Cl)cccc1Cl (stereo not drawn) [Example 14] |
| 176 to 178 °C | CC1SC(=O)NN=C1c1ccc2c(c1)CCCN2 (stereo not drawn) [Example 2] |
| 153 to 154 °C | Cc1ccccc1NC(=O)N1CCCc2cc(C3=NNC(=O)SC3C)ccc21 (stereo not drawn) [Example 9] |
| 133 to 134 °C | CCCCNC(=O)N1CCCc2cc(C3=NNC(=O)SC3C)ccc21 (stereo not drawn) [Example 5] |
| 218 to 220 °C (dec.) | CC1SC(=O)NN=C1c1ccc2c(c1)CCCN2C(=O)Nc1ccc(Cl)cc1 (stereo not drawn) [Example 7] |
| 172 to 174 °C | CC1SC(=O)NN=C1c1ccc2c(c1)CCCN2C(=O)CCc1ccccc1 (stereo not drawn) [Example 17] |
| 190 to 191 °C | CC1SC(=O)NN=C1c1ccc2c(c1)CCCN2C(=O)c1cccs1 (stereo not drawn) [Example 18] |
| 122 to 124 °C (dec.) | CCNC(=O)N1CCCc2cc(C3=NNC(=O)SC3C)ccc21 (stereo not drawn) [Example 3] |
| 202 to 204 °C | CC1SC(=O)NN=C1c1ccc2c(c1)CCCN2C(=O)c1ccccc1 (stereo not drawn) [Example 13] |
| 158 to 160 °C | CC1SC(=O)NN=C1c1ccc2c(c1)CCCN2C(=O)NCc1ccc(F)cc1 (stereo not drawn) [Example 10] |
| 165 to 166 °C (dec.) | CC1SC(=O)NN=C1c1ccc2c(c1)CCCN2C(=O)Nc1cccc2ccccc12 (stereo not drawn) [Example 8] |
